Measurements as given in patent US20250230511A1, “METHODS AND REAGENTS FOR […] VECTOR NUCLEIC ACID PRODUCTS” (Sana Biotechnology, Inc., priority 2021, published 2025).

How the values were obtained:
[1] = tested on: VSV-G pseudotyped lentiviral vector (VG); type: cell-based
[2] = tested on: VSV-G pseudotyped lentiviral vector (VG); type: cell-based; remark: listed apart in the source

SMILES: Cc1ccnc2c1NC(=O)c1cccnc1N2C1CC1 [Nevirapine]
- determination of VCN based on assay of the WPRE amplicon [1]: not substantially impacted
- determination of VCN based on assay of the DelU3 amplicon [2]: completely ablated
